# Reference: patent US6043241A, “Ketoacid endothelin antagonists” (Warner-Lambert Company, priority 1998, dated 2000)
# Where a SMILES comes first, the peptide text is derived from it. [ ]: non-standard residue; d: D form.
# Columns and labels:
# [1] = system: basilar artery vasoconstriction; settings: canine two-hemorrhage model of SAH, after 7 days; cited from earlier work
# human ETA R = target: T1, human ETA R (Homo sapiens, UniProt P25101); assay: Competition radioligand binding assay, [125I]-ET-1, Ltk- cells expressing human ETA R (HERBA A); settings: Ltk- cell membranes, 40 pM [125I]-ET-1, 2 hours at 37° C
# T1 construct: expressed in transfected cells; host or cells: Ltk- cells (membranes)
# T1 sequence (P25101 21-427): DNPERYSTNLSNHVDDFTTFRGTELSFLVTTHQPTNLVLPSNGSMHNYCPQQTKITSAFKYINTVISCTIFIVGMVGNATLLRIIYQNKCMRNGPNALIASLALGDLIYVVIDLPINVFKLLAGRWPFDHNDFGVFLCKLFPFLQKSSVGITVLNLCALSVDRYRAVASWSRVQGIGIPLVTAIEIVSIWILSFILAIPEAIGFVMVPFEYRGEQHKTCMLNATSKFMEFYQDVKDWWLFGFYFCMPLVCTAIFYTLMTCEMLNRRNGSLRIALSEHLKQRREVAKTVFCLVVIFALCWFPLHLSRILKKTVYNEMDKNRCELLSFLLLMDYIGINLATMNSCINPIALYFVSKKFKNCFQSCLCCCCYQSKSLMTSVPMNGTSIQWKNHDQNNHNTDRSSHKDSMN
# Protocol: (§1) The following cultured cells were used in binding experiments: CHO-K1 cells expressing recombinant human ETB R (HERBA B), or Ltk^- cells expressing human ETA R (HERBA A). […] Membranes were prepared from cultured cells by lysing cells in cold lysis buffer (5 mM HEPES, 2 mM EDTA, pH 7.4) and homogenizing with a Dounce "A" homogenizer. All of the homogenates were centrifuged at 30,000×g for 20 minutes at 4° C. Membrane pellets were resuspended in cold buffer containing 20 mM Tris, 2 mM EDTA, 200 μM Pefablock, 10 μM phosphoramidon, 10 μM leupeptin, and 1 μM pepstatin (pH 7.4) and frozen at -80° C. until use. Radioligand and competing ligands were prepared in binding buffer containing 20 mM Tris, 2 mM EDTA, and 0.1% BSA.
# (§2) The assay was terminated by filtration over Whatman GF/B filters that were presoaked with 50 mM Tris, pH 7.4, containing 0.2% BSA and 100 μM bacitracin. […] binding was defined as total binding minus nonspecific binding.
# human ETB R = target: T2, human ETB R (Homo sapiens, UniProt P24530); assay: Competition radioligand binding assay, [125I]-ET-1, CHO-K1 cells expressing recombinant human ETB R (HERBA B); settings: CHO-K1 cell membranes, 40 pM [125I]-ET-1, 2 hours at 37° C
# T2 construct: expressed in transfected cells; host or cells: CHO-K1 cells (membranes)
# T2 sequence (P24530 27-442): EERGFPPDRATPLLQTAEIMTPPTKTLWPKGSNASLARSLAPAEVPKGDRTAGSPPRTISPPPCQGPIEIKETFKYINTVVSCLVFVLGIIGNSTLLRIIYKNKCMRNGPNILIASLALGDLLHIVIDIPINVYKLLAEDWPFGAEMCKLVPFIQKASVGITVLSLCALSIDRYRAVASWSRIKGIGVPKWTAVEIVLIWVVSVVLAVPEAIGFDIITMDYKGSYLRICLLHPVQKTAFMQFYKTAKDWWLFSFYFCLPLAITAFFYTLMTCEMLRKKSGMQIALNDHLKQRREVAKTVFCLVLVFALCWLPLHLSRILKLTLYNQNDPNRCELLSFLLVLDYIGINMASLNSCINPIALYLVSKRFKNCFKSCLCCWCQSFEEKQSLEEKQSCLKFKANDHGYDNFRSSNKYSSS
# Protocol: as §1, §2
# early cerebral vasospasm [2] = settings: rat SAH; cited from earlier work
# prostate smooth muscle = settings: in vivo; cited from earlier work
# neointima formation = settings: rats, carotid artery balloon angioplasty; cited from earlier work
# [3] = system: ET-1-induced changes in gastric mucosal hemodynamics; settings: in vivo; cited from earlier work
# acute renal ischemia = settings: in vivo; cited from earlier work
# chronic heart failure = settings: patients with chronic heart failure; cited from earlier work
# pulmonary hypertension = settings: rat hypoxia model; cited from earlier work
# small intestinal mucosa = settings: rats, local intra-arterial; cited from earlier work
# liver = settings: cited from earlier work
# [4] = system: isolated cerebral arterioles; settings: cited from earlier work
# early cerebral vasospasm [5] = settings: in vivo; cited from earlier work
# [6] = system: middle cerebral artery occlusion; settings: cats, IV; cited from earlier work
molecule,measurement,setting,value
FR 139317,vasoconstriction of the basilar artery,[1],significantly inhibited the vasoconstriction of the basilar artery
"COc1ccc(/C(C(=O)O)=C(/Cc2ccc3c(c2)OCO3)C(=O)c2cc(OC)c(OC)c(OC)c2)cc1 [Example 2, (E)-3-Benzo[1,3]dioxol-5-ylmethyl-2-(4-methoxy-phenyl)-4-oxo-4-(3,4,5-trimethoxy-phenyl)-but-2-enoic acid]",IC50,human ETA R,58 nM
same,IC50,human ETB R,10000 nM
COc1cccc(Oc2c(NS(=O)(=O)c3ccc(C(C)(C)C)cc3)ncnc2OCCO)c1 [Ro 46-2005],systemic arterial blood pressure,early cerebral vasospasm [2],no significant effect on systemic arterial blood pressure
COc1ccc(C2(O)OC(=O)C(c3ccc4c(c3)OCO4)=C2Cc2ccccc2)cc1 (stereo not drawn) [PD 155080],prostate smooth muscle function,prostate smooth muscle,mediate prostate smooth muscle function in vivo
CCCOc1ccc2c(c1)[C@@H](c1ccc(OC)cc1OCC(=O)O)[C@H](C(=O)O)[C@H]2c1ccc2c(c1)OCO2 [SB 209670],neointima formation,neointima formation,ameliorate neointima formation
"COc1ccc(C(=O)/C(Cc2cc(OC)c(OC)c(OC)c2)=C(/C(=O)O)c2ccc3c(c2)OCO3)cc1 [Example 1, (E)-2-Benzo[1,3]dioxol-5-yl-4-(4-methoxy-phenyl)-4-oxo-3-(3,4,5-trimethoxy-benzyl)-but-2-enoic acid]",IC50,human ETA R,65 nM
same,IC50,human ETB R,> 2500 nM
COc1ccccc1Oc1c(NS(=O)(=O)c2ccc(C(C)(C)C)cc2)nc(-c2ncccn2)nc1OCCO [Bosentan],ET-1-induced changes in gastric mucosal hemodynamics and ET-1-induced gastric ulceration,[3],antagonist toward the ET-1-induced changes in gastric mucosal hemodynamics as well as on ET-1-induced gastric ulceration
same,efficacy in models of acute renal ischemia,acute renal ischemia,effective in models of acute renal ischemia
same,cardiac performance,chronic heart failure,improve cardiac performance
same,increase in pulmonary vascular resistance and pulmonary arterial pressure,pulmonary hypertension,lowering the increase in pulmonary vascular resistance and pulmonary arterial pressure
endothelin,small intestinal mucosal damage,small intestinal mucosa,induce small intestinal mucosal damage in rats in a dose-dependent manner
same,hepatic vasculature vasoconstriction and hepatic glucose output,liver,sustained vasoconstriction of the hepatic vasculature and a significant increase in hepatic glucose output
same,vasoconstrictor action on isolated cerebral arterioles,[4],potent vasoconstrictor action
CCOc1ccc(C(=O)/C(Cc2cc(OC)c(OC)c(OC)c2)=C(/C(=O)O)c2cc(OC)c3c(c2)OCO3)cc1C [Example 3],IC50,human ETA R,70 nM
same,IC50,human ETB R,> 2500 nM
CC(C)C[C@@H]1NC(=O)[C@@H](C(C)C)NC(=O)[C@@H]2CCCN2C(=O)[C@@H](CC(=O)O)NC(=O)[C@@H](Cc2c[nH]c3ccccc23)NC1=O [BQ-123] (cyclo(L[dW][dD]P[dV])),early cerebral vasospasm following SAH,early cerebral vasospasm [5],prevent early cerebral vasospasm
same,increase in pulmonary vascular resistance and pulmonary arterial pressure,pulmonary hypertension,lowering the increase in pulmonary vascular resistance and pulmonary arterial pressure
COc1ccc(C2(O)OC(=O)C(c3ccc4c(c3)OCO4)=C2Cc2cc(OC)c(OC)c(OC)c2)cc1 (stereo not drawn) [PD 156707],increase in pulmonary vascular resistance and pulmonary arterial pressure,pulmonary hypertension,lowering the increase in pulmonary vascular resistance and pulmonary arterial pressure
same,volume of ischemic damage in the cerebral hemisphere,[6],significantly reduced
